Results reported in the supplement of paper PMC8960247.
Structures can show the parent of a compound that is named as a salt. ± gives the standard error.

Columns and labels:
621-103 (TSC2-rescued) = experiment: relative viability vs DMSO; higher = less cytotoxic; details: serum: 10% FBS, 72 h
621-102 (TSC2-deficient) = experiment: as above; details: serum: 10% FBS, 72 h
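Also: immortalized renal angiomyolipoma cells stably carrying empty vector or TSC2, dosed in 384-well plates in DMEM, viability normalized to vehicle-treated wells within each plate.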

SMILES | relative viability (621-103 (TSC2-rescued); 0.0001 µM) [%] | relative viability (621-103 (TSC2-rescued); 0.001 µM) [%] | relative viability (621-103 (TSC2-rescued); 0.01 µM) [%] | relative viability (621-103 (TSC2-rescued); 0.1 µM) [%] | relative viability (621-103 (TSC2-rescued); 1 µM) [%] | relative viability (621-103 (TSC2-rescued); 10 µM) [%] | relative viability (621-102 (TSC2-deficient); 0.0001 µM) [%] | relative viability (621-102 (TSC2-deficient); 0.001 µM) [%] | relative viability (621-102 (TSC2-deficient); 0.01 µM) [%] | relative viability (621-102 (TSC2-deficient); 0.1 µM) [%] | relative viability (621-102 (TSC2-deficient); 1 µM) [%] | relative viability (621-102 (TSC2-deficient); 10 µM) [%]
Cc1cc(C(C)(C)C)c(O)c(C)c1CC1=NCCN1 [Oxymetazoline HCl] | 99.9 ± 0.63 | 96.5 ± 1.5 | 99.3 ± 6 | 98.5 ± 5 | 103 ± 4.4 | 98.8 ± 3.1 | 120 ± 4.5 | 116 ± 4.1 | 112 ± 2 | 107 ± 4.2 | 113.2 ± 0.75 | 103 ± 2.8
NC(=O)N1c2ccccc2C=Cc2ccccc21 [Carbamazepine (Carbatrol)] | 101.9 ± 0.54 | 105.8 ± 0.3 | 103 ± 1.8 | 107.7 ± 0.39 | 105 ± 0.35 | 98.871 ± 0.053 | 93.1 ± 3.9 | 96.7 ± 3.8 | 93.3 ± 3 | 101.1 ± 0.14 | 108.4 ± 0.97 | 94.54 ± 0.19
Nc1ccc(S(N)(=O)=O)cc1 [Sulfanilamide] | 102 ± 3.3 | 102 ± 0.77 | 104 ± 1.8 | 106 ± 1.9 | 101 ± 2.4 | 96.1 ± 2.9 | 94.3 ± 1.1 | 108 ± 5.2 | 97.7 ± 2.6 | 99 ± 1.8 | 99.8 ± 2.5 | 92.9 ± 1.2
N#C/C(=C\c1ccc(O)c(O)c1)C(=O)NCc1ccccc1 [AG-490] | 109 ± 1.2 | 109 ± 3.9 | 108 ± 2 | 114 ± 1.2 | 107 ± 1 | 83.8 ± 3.9 | 99.7 ± 2.8 | 98.6 ± 3.6 | 92.6 ± 2.9 | 104 ± 2.4 | 99.2 ± 6.6 | 81 ± 1.6
CC(C)n1c(/C=C/C(O)CC(O)CC(=O)O)c(-c2ccc(F)cc2)c2ccccc21 (stereo not given) [Fluvastatin Sodium] | 102 ± 2.2 | 95.8 ± 2.6 | 99.5 ± 4.6 | 100 ± 2.1 | 71.8 ± 4.7 | 32.19 ± 0.096 | 102 ± 1.5 | 106 ± 3.3 | 105 ± 1.1 | 101 ± 3.1 | 100 ± 2.8 | 73.38 ± 0.72
O=C(O)Cc1cccc(OCCCN(Cc2cccc(C(F)(F)F)c2Cl)CC(c2ccccc2)c2ccccc2)c1 [GW3965] | 107 ± 1.3 | 108 ± 3.5 | 110.7 ± 1 | 106 ± 4.5 | 99.6 ± 5.4 | 101 ± 3.5 | 89.3 ± 0.92 | 88.7 ± 4 | 86.8 ± 4.3 | 86.31 ± 0.36 | 77.5 ± 4 | 86.9 ± 5.4
COC(=O)N1CCN(Cc2cccc(NC(=O)Nc3ccc(C)nc3)c2F)CC1 | 103 ± 5.3 | 111 ± 1.7 | 110 ± 1.2 | 101 ± 2.6 | 108 ± 2.7 | 104 ± 2.6 | 93.8 ± 5.1 | 94.7 ± 5.8 | 97.5 ± 0.16 | 96.33 ± 0.19 | 85.15 ± 0.1 | 95.3 ± 1.4
COc1ccc(-c2oc3c(CC=C(C)C)c(O[C@@H]4O[C@H](CO)[C@@H](O)[C@H](O)[C@H]4O)cc(O)c3c(=O)c2O[C@@H]2O[C@@H](C)[C@H](O)[C@@H](O)[C@H]2O)cc1 [Icariin] | 116 ± 1.2 | 105 ± 3.3 | 109 ± 1.2 | 101 ± 1.4 | 98.3 ± 5.3 | 116 ± 3.7 | 93.6 ± 10 | 92.7 ± 2.9 | 89.44 ± 0.27 | 102 ± 5.1 | 87.9 ± 11 | 80.99 ± 0.32
CN1C(C(=O)Nc2ccccn2)=C(O)c2ccccc2S1(=O)=O [Piroxicam] | 110 ± 3 | 125 ± 2.3 | 126 ± 3.5 | 119.6 ± 0.1 | 112 ± 5 | 116.42 ± 0.082 | 98.4 ± 3.2 | 105 ± 8.5 | 111.3 ± 0.51 | 109 ± 4.4 | 103 ± 1.4 | 104 ± 9.8
Oc1ccc([C@@H]2Oc3ccc(O)cc3[C@@H]3CCC[C@@H]32)cc1 | 106 ± 1.5 | 101.57 ± 0.083 | 103 ± 1.1 | 106 ± 2.1 | 103.1 ± 0.19 | 66.2 ± 5.5 | 120.08 ± 0.051 | 124 ± 1.3 | 105 ± 1.5 | 108 ± 2.7 | 113 ± 5.1 | 65.5 ± 4
